Among the data in US20090018134A1, “Compounds - 945” (AstraZeneca AB, priority 2007, published 2009) are IC50 values, retold here.

Each structure is given as a SMILES string.

For the assay, the target named is T1, mTOR (Homo sapiens, UniProt P42345).
T1 construct: FLAG; made in house
T1 sequence (P42345 1362-2549): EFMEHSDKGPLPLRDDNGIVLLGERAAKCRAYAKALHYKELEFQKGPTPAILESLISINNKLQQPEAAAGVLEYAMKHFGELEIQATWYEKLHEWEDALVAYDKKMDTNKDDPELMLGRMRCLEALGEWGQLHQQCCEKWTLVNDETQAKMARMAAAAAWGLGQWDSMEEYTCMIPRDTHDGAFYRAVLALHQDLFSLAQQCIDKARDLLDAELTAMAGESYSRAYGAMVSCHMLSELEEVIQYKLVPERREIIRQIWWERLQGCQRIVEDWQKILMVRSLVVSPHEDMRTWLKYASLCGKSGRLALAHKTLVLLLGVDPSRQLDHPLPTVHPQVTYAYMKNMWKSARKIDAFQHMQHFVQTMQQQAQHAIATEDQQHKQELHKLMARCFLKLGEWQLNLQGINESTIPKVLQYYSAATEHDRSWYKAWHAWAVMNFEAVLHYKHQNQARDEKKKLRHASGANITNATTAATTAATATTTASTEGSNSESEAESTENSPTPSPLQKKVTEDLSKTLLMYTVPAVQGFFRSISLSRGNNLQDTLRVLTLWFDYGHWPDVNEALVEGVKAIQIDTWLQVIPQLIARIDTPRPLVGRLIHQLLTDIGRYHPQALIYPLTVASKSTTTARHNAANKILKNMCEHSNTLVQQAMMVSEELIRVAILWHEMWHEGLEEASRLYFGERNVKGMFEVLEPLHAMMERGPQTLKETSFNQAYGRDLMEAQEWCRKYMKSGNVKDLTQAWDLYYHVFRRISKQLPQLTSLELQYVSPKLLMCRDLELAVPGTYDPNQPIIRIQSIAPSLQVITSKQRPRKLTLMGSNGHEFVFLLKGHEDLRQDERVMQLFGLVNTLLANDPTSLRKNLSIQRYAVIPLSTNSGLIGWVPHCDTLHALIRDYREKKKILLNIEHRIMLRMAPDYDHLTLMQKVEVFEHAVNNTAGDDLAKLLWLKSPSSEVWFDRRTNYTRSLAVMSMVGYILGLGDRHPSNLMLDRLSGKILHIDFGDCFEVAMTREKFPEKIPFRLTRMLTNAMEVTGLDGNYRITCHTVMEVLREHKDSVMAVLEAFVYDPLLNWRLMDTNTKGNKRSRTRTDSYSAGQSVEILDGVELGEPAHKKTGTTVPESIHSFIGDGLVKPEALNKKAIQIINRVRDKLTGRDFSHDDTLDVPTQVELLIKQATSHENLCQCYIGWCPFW
Kind of assay: In Vitro mTOR Kinase Assay (Echo), Test (a)(ii). In kind it is biochemical. As to conditions: table of enzyme assay Test (a)(ii); read-out: Test (a)(ii) IC50. In short, it runs like this:
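FLAG-tagged truncated mTOR (residues 1362-2549), expressed in HEK293 and purified via the FLAG tag, phosphorylated a biotinylated peptide over 2 hours at room temperature. EDTA stopped the reaction. Phospho-T389 was detected overnight by AlphaScreen using the p70 S6K T389 antibody with Protein A/streptavidin beads; IC50 reported.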
As to `C[C@H]1COCCN1c1cc(C2(S(C)(=O)=O)CC2)nc(-c2ccc(NC(=S)Nc3cnn(C)c3)cc2)n1` [Example 37o, 1-[4-[4-[(3S)-3-methylmorpholin-4-yl]-6-(1-methylsulfonylcyclopropyl)pyri-midin-2-yl]phenyl]-3-(1-methylpyrazol-4-yl)thiourea], the half-inhibitory concentration (IC50) was found to be 33 nM.
Under `CNC(=S)Nc1ccc(-c2nc(N3CCOC[C@@H]3C)cc(C3(S(=O)(=O)c4nc(C)cs4)CC3)n2)cc1` [Example 37p, 3-methyl-1-[4-[4-[(3S)-3-methylmorpholin-4-yl]-6-[1-[(4-methyl-1,3-thiazol-2-yl)sulfonyl]cyclopropyl]pyri-midin-2-yl]phenyl]thiourea] stands 5.34 nM; under `Cc1csc(S(=O)(=O)C2(c3cc(N4CCOC[C@@H]4C)nc(-c4ccc(NC(=S)NC5CC5)cc4)n3)CC2)n1` [Example 37q, 3-cyclopropyl-1-[4-[4-[(3S)-3-methylmorpholin-4-yl]-6-[1-[(4-methyl-1,3-thiazol-2-yl)sulfonyl]cyclopropyl]pyri-midin-2-yl]phenyl]thiourea], 2.94 nM; under `Cc1csc(S(=O)(=O)C2(c3cc(N4CCOC[C@@H]4C)nc(-c4ccc(NC(=S)NCCO)cc4)n3)CC2)n1` [Example 37r, 3-(2-hydroxyethyl)-1-[4-[4-[(3S)-3-methylmorpholin-4-yl]-6-[1-[(4-methyl-1,3-thiazol-2-yl)sulfonyl]cyclopropyl]pyri-midin-2-yl]phenyl]thiourea], 1.62 nM.
As to `CNC(=S)Nc1ccc(-c2nc(N3CCOC[C@@H]3C)cc(C3(S(=O)(=O)c4ccc(F)cc4)CC3)n2)cc1` [Example 37s, 1-[4-[4-[1-(4-fluorophenyl)sulfonylcyclopropyl]-6-[(3S)-3-methylmorpholin-4-yl]pyrimidin-2-yl]phenyl]-3-methylthiourea], the IC50 was 7.56 nM.
Under `C[C@H]1COCCN1c1cc(C2(S(=O)(=O)c3ccc(F)cc3)CC2)nc(-c2ccc(NC(=S)NC3CC3)cc2)n1` [Example 37t, 3-cyclopropyl-1-[4-[4-[1-(4-fluorophenyl)sulfonylcyclopropyl]-6-[(3S)-3-methylmorpholin-4-yl]pyrimidin-2-yl]phenyl]thiourea] stands 8.89 nM; under `C[C@H]1COCCN1c1cc(C2(S(=O)(=O)c3ccc(F)cc3)CC2)nc(-c2ccc(NC(=S)NCCO)cc2)n1` [Example 37u, 1-[4-[4-[1-(4-fluorophenyl)sulfonylcyclopropyl]-6-[(3S)-3-methylmorpholin-4-yl]pyrimidin-2-yl]phenyl]-3-(2-hydroxyethyl)thiourea], 0.395 nM; under `C[C@H]1COCCN1c1cc(C2(S(=O)(=O)c3ccccc3)CC2)nc(-c2ccc(NC(=S)NC3CC3)cc2)n1` [Example 37v, 1-[4-[4-[1-(benzenesulfonyl)cyclopropyl]-6-[(3S)-3-methylmorpholin-4-yl]pyrimidin-2-yl]phenyl]-3-cyclopropylthiourea], 5.49 nM.
As for `C[C@H]1COCCN1c1cc(C2(S(=O)(=O)c3ccccc3)CC2)nc(-c2ccc(NC(=S)Nc3cnn(C)c3)cc2)n1` [Example 37w, 1-[4-[4-[1-(benzenesulfonyl)cyclopropyl]-6-[(3S)-3-methylmorpholin-4-yl]pyrimidin-2-yl]phenyl]-3-(1-methylpyrazol-4-yl)thiourea], the IC50 was 1.37 nM.
For `C[C@H]1COCCN1c1cc(C2(S(=O)(=O)c3ccccc3)CC2)nc(-c2ccc(NC(=S)NCCCO)cc2)n1` [Example 37x, 1-[4-[4-[1-(benzenesulfonyl)cyclopropyl]-6-[(3S)-3-methylmorpholin-4-yl]pyrimidin-2-yl]phenyl]-3-(3-hydroxypropyl)thiourea], the IC50 came out at 9.44 nM.
On to `CCNC(=S)Nc1ccc(-c2nc(N3CCOC[C@@H]3C)cc(C3(S(=O)(=O)c4ccccc4)CC3)n2)cc1` [Example 37z, 3-[4-[4-[1-(benzenesulfonyl)cyclopropyl]-6-[(3S)-3-methylmorpholin-4-yl]pyrimidin-2-yl]phenyl]-1-ethylthiourea], for which the IC50 is 4.81 nM.
